The record followed here is patent US20100273814A1, “((PHENYL)IMIDAZOLYL)METHYLHETEROARYL COMPOUNDS” (priority 2007, published 2010).

Type in all cases: cell-based
The target in assay [1] is T1, alpha2A receptor (Homo sapiens, UniProt P08913).
T1 construct: expressed in transfected cells; host or cells: NIH-3T3 cells
T1 sequence (P08913 1-465): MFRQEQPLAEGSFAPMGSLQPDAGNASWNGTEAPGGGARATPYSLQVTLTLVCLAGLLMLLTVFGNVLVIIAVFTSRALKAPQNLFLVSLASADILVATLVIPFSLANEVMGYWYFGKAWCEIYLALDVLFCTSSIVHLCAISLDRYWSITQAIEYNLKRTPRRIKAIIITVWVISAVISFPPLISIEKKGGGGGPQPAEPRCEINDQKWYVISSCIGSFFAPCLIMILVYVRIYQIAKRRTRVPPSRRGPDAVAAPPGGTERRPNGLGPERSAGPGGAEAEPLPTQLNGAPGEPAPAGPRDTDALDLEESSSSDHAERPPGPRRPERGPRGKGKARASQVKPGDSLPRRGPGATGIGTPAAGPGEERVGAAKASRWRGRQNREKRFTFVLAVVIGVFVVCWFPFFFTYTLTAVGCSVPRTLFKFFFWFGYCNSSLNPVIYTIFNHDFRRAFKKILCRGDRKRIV
Kind of assay: Receptor Selection and Amplification Technology (RSAT) assay, alpha2A. The note with it: RSAT; for EC50: transfected NIH-3T3 cells, value outside brackets, read-out: Alpha 2A EC50 (potency); for Alpha 2A intrinsic activity (efficacy): ratio of maximal effect to that of standard full agonist brimonidine (UK14304), value in brackets. As for the experimental part: (§1) Receptor Selection and Amplification Technology (RSAT) Assay
(§2) The RSAT assay measures a receptor-mediated loss of contact inhibition that results in selective proliferation of receptor-containing cells in a mixed population of confluent cells. The increase in cell number is assessed with an appropriate transfected marker gene such as β-galactosidase, the activity of which can be easily measured in a 96-well format. Receptors that activate the G protein, Gq, elicit this response. Alpha2 receptors, which normally couple to Gi, activate the RSAT response when coexpressed with a hybrid Gq protein that has a Gi receptor recognition domain, called Gq/i5.
(§3) NIH-3T3 cells are plated at a density of 2×10^6 cells in 15 cm dishes and maintained in Dulbecco's modified Eagle's medium supplemented with 10% calf serum. One day later, cells are cotransfected by calcium phosphate precipitation with mammalian expression plasmids encoding p-SV-β-galactosidase (5-10 μg), receptor (1-2 μg) and G protein (1-2 μg). 40 μg salmon sperm DNA may also be included in the transfection mixture. Fresh media is added on the following day and 1-2 days later, cells are harvested and frozen in 50 assay aliquots. Cells are thawed and […] added to 100 aliquots of various concentrations of drugs in triplicate in 96-well dishes. Incubations continue 72-96 hr at 37° C. After washing with phosphate-buffered saline, β-galactosidase enzyme activity is determined by adding 200 μl of the chromogenic substrate (consisting of 3.5 mM o-nitrophenyl-β-D-galactopyranoside and 0.5% nonidet P-40 in phosphate buffered saline), incubating overnight at 30° C. and measuring optical density at 420 nm. The absorbance is a measure of enzyme activity, which depends on cell number and reflects a receptor-mediated cell proliferation. The efficacy or intrinsic activity is calculated as a ratio of the maximal effect of the drug to the maximal effect of a standard full agonist for each receptor subtype. Brimonidine, also called UK14304, the chemical structure of which is shown below, is used as the standard agonist for the alpha2A, alpha2B and alpha2C receptors. The EC50 is the concentration at which the drug effect is half of its maximal effect.
(§4) EC50 values are nanomolar. ND stands for “not determinable” at concentrations less than 10 micromolar. IA stands for “intrinsic activity.”

For assay [2], the target named is T2, alpha2B receptor (Homo sapiens, UniProt P18089).
T2 construct: expressed in transfected cells; host or cells: NIH-3T3 cells
T2 sequence (P18089 1-450): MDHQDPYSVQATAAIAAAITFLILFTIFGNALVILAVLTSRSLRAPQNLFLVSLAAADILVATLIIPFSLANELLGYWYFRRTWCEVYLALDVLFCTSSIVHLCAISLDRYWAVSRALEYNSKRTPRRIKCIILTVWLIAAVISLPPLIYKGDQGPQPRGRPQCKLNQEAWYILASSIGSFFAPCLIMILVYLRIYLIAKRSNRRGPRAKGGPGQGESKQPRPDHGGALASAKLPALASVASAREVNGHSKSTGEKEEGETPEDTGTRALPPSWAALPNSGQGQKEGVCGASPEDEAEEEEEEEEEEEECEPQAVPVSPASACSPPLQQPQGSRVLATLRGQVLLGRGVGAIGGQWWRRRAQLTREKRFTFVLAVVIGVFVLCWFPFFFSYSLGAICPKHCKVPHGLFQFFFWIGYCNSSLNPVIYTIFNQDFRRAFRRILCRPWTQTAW
The assay is described as follows: Receptor Selection and Amplification Technology (RSAT) assay, alpha2B. The note with it: RSAT; for EC50: transfected NIH-3T3 cells, value outside brackets, read-out: Alpha 2B EC50 (potency); for Alpha 2B intrinsic activity (efficacy): ratio of maximal effect to that of standard full agonist brimonidine (UK14304), value in brackets. As for the experimental part: as §1, §2, §3, §4

For assay [3], the target named is T3, alpha2C receptor (Homo sapiens, UniProt P18825).
T3 construct: expressed in transfected cells; host or cells: NIH-3T3 cells
T3 sequence (P18825 1-462): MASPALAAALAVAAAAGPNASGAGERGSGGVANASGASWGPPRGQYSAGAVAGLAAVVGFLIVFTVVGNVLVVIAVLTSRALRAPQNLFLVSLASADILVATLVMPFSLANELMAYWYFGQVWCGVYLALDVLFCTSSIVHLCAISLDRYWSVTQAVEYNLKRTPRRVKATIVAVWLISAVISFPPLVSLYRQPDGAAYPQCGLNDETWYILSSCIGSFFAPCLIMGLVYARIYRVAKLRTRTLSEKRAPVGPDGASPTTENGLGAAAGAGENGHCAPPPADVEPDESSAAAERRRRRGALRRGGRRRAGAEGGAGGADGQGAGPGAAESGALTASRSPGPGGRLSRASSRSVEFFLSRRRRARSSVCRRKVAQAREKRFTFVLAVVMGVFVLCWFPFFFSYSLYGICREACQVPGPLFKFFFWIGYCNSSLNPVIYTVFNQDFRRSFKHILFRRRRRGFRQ
The assay is described as follows: Receptor Selection and Amplification Technology (RSAT) assay, alpha2C. The note with it: RSAT; for EC50: transfected NIH-3T3 cells, value outside brackets, read-out: Alpha 2C EC50 (potency); for Alpha 2C intrinsic activity (efficacy): ratio of maximal effect to that of standard full agonist brimonidine (UK14304), value in brackets. The method, then:
as §1, §2, §3, §4

The term EC50 denotes the concentration giving half of the maximal effect. Take `Fc1ccccc1C(c1ccncc1)c1c[nH]cn1` (stereo not shown) [4-((2-fluorophenyl)(1H-imidazol-5-yl)methyl)pyridine]: in assay [1], the EC50 is greater than 10000 nM and the “Alpha 2A intrinsic activity (efficacy)” value is 0.04. Also, in assay [2], the EC50 came out at 350 nM and the “Alpha 2B intrinsic activity (efficacy)” value is reported as 0.78. Also, in assay [3], the EC50 is 365 nM and the “Alpha 2C intrinsic activity (efficacy)” value came to 0.48.

Regarding `CC(C)c1ccc(C(c2c[nH]cn2)c2cccc(F)c2Cl)s1` (stereo not shown), in assay [1], the “Alpha 2A intrinsic activity (efficacy)” value was 0.06. Moreover, in assay [2], the EC50 is 75 nM and the “Alpha 2B intrinsic activity (efficacy)” value is 0.40. Also, in assay [3], the “Alpha 2C intrinsic activity (efficacy)” value is reported as 0.23.

As to `Cc1c(Cl)cccc1C(c1ccccn1)c1c[nH]cn1` (stereo not shown), in assay [1], the EC50 was greater than 10000 nM and the “Alpha 2A intrinsic activity (efficacy)” value came to 0.12. Also, in assay [2], the EC50 amounted to 7.8 nM and the “Alpha 2B intrinsic activity (efficacy)” value was found to be 1.39. Moreover, in assay [3], the half-maximal effective concentration (EC50) amounted to 495 nM and the “Alpha 2C intrinsic activity (efficacy)” value is listed as 0.53.

As to `Fc1c(Cl)cccc1C(c1ccccn1)c1cnc[nH]1` (stereo not shown) [2-((3-chloro-2-fluorophenyl)(1H-imidazol-5-yl)methyl)pyridine], in assay [1], the EC50 is greater than 10000 nM and the “Alpha 2A intrinsic activity (efficacy)” value was 0.07. For the same molecule, in assay [2], the 50% effective concentration (EC50) came out at 32 nM and the “Alpha 2B intrinsic activity (efficacy)” value stood at 1.21. In addition, in assay [3], the EC50 stood at 177 nM and the “Alpha 2C intrinsic activity (efficacy)” value worked out at 0.49.
